From US4063025A, “4-Substituted amino-α-aminomethylbenzyl alcohol derivatives” (Yamanouchi Pharmaceutical Co., Ltd., priority 1975, dated 1977)
Structures can show the parent of a compound that is named as a salt. Where two headings read alike, the source gives them in different places.

Tests used:
guinea pig = experiment: Anti asthmatic activity: protection from histamine-induced asthmatic dyspnea, subcutaneous (Parker et al.); type: in vivo; conditions: Cavia porcellus, sc, 0.5 h, read-out: anti-asthmatic activity ED50
Procedure: The experiments were carried out according to the method of Parker et al., (J. Pharmacol. Exptl. Therap., 118, 359-364 (1956)). A guinea pig was placed in a 11 liters glass chamber and exposed to the spasmogen by means of a nebulizer. […] Samples were administered subcutaneously to animals 30 min. prior the application of the spasmogen.
ED50 was calculated by the method of Litchfield-Wilcoxon (J. Pharmacol. Exptl. Therap., 96, 99-113 (1949) using 4-8 groups and one group consists of 4-8 of guinea pig.

β1 /β2 = experiment: Broncho-selectivity (ratio of β1/β2); type: in vivo, Mongorel dogs; conditions: intraduodenal, anesthetized dogs; from ED25 heart rate and ED50 bronchodilator
From the text: The broncho-selectivity was obtained by the following equation. [formula]

β1 = experiment: Action on heart rate, β1 action, intraduodenal; type: in vivo, Mongorel dogs
Procedure: b. Action on heartrate, β1 action.
Mongorel dogs were anesthetized with pentobarbital Na. Heart rate (HR) was recorded on polygraph. […] The time-course of ΔHR (the increased HR against the control) was obtained.
The dose response curve drawn according to the peak response on each dose and the ED25 beats/min. (μg/Kg), that is the dose of the sample producing 25 beats/min. increase in heart rate was obtained from the curve.

β2 = biological target: T1, β2 (Canis lupus familiaris, UniProt P54833); experiment: Bronchodilator activity, β2 action: histamine-induced increase in bronchial resistance, intraduodenal (Konzett and Rossler); type: in vivo, Mongorel dogs; conditions: dog, anesthetized dogs, histamine dihydrochloride 10 μg/Kg i.v., peak effect, read-out: β2 action i.d. ED50
T1 construct: from tissue; host or cells: airways of anesthetized mongrel dogs, in vivo
T1 sequence (P54833 whole entry): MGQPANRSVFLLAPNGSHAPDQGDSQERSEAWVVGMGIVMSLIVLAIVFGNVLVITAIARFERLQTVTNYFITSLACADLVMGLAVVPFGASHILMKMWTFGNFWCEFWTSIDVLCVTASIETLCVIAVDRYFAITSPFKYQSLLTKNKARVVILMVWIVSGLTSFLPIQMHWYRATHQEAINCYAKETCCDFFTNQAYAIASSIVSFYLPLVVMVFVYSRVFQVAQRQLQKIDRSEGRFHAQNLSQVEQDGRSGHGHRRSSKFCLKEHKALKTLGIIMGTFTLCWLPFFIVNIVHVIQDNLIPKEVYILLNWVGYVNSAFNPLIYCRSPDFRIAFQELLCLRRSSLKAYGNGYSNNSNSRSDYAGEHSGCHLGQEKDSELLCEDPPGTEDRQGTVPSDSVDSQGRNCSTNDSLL
Procedure: a. Bronchodilator activity, B2 action
The experiments were carried out according to the method of Konzett and Rossler (Arch. exp. Path. Pharmakol., 195, 11-14 (1940)). Mongorel dogs were anesthetized with pentobarbital Na. Temporary increase in bronchial resistance, measured with transducer connected to a polygraph, were produced by histamine dihydrochloride, 10 μg/Kg injected rapidly intravenously at intervals of 30 min. The test samples were injected intraduodenally and the time-course of antihistamine activity of the sample (the inhibition rate (%) against the control) was obtained.
ED50 (μg/Kg) values of β-agonists were obtained from the dose response curve drawn according to the peak effect on each dose.

[1] = cited from earlier work
[2] = subcutaneous, 30 min. prior to spasmogen (0.1% histamine dihydrochloride spray), guinea pig

In the case of `CCNc1c(Cl)cc(C(O)CNC(C)(C)C)cc1Cl.Cl` (stereo not drawn) [Ex. 6, 3,5-dichloro-4-ethylamino-α-(tert-butylaminomethyl)-benzyl alcohol mono-hydrochloride], the ED50 (guinea pig) is reported as 0.125 to 0.25 mg/kg.
Work on `COC(=O)Nc1c(Br)cc(C(O)CNC(C)(C)C)cc1Br` (stereo not drawn) [Ex. 8, 3,5-dibromo-4-methoxycarbonylamino-α-(tert-butylaminomethyl)benzyl alcohol] yielded an ED50 (guinea pig; [2]) of 0.125 mg/kg.
In the case of `CCOC(=O)Nc1c(Cl)cc(C(O)CNC(C)(C)C)cc1Cl.Cl` (stereo not drawn) [Ex. 10, 3,5-dichloro-4-ethoxycarbonylamino-α-(tert-butylaminomethyl)-benzyl alcohol hydrochloride], the “broncho-selectivity (Ratio of β1 /β2)” value (β1 /β2) is reported as 4.3, the “β1 action i.d. ED25 beats/min” value (β1; dog, in vivo) is reported as 0.0195 mg/kg and the ED50 (β2) is reported as 0.0045 mg/kg.
With `CC(C)OC(=O)Nc1c(Cl)cc(C(O)CNC(C)(C)C)cc1Cl` (stereo not drawn) [Ex. 12, 3,5-dichloro-4-isopropoxycarbonylamino-α-(tert-butylaminomethyl)benzyl alcohol] the ED50 (guinea pig; [2]) was 0.032 mg/kg.
With `CC(C)(C)NCC(O)c1cc(Cl)c(NC(=O)OCc2ccccc2)c(Cl)c1.Cl` (stereo not drawn) [Ex. 13, 3,5-dichloro-4-benzyloxycarbonylamino-α-(tert-butylaminomethyl)benzyl alcohol hydrochloride] the ED50 (guinea pig; [2]) was 0.125 mg/kg.
For `COCCOC(=O)Nc1c(Cl)cc(C(O)CNC(C)(C)C)cc1Cl` (stereo not drawn) [Ex. 14, 3,5-dichloro-4-(2-methoxyethoxy)carbonylamino-α-(tert-butylaminomethyl)benzyl alcohol hydrochloride], the ED50 (guinea pig; [2]) was 0.032 mg/kg.
In the case of `CNC(=O)Nc1c(Cl)cc(C(O)CNC(C)(C)C)cc1Cl` (stereo not drawn) [Ex. 15, 3,5-dichloro-4-methylcarbamoylamino-α-(tert-butylaminomethyl)benzyl alcohol], the ED50 (guinea pig; [2]) is reported as 0.125 to 0.25 mg/kg.
In the case of `COC(=O)Nc1c(Cl)cc(C(O)CNC(C)(C)C)cc1Br` (stereo not drawn) [Ex. 18, 3-bromo-5-chloro-4-methoxycarbonylamino-α-(tert-butylaminomethyl)-benzyl alcohol 1/2 fumarate], the ED50 (guinea pig; [2]) is reported as 0.063 mg/kg.
`COC(=O)Nc1ccc(C(O)CNC(C)(C)C)cc1Cl` (stereo not drawn) [Ex. 23, 3-chloro-4-methoxycarbonylamino-α-(N-tert-butylaminomethyl)benzyl alcohol] showed an ED50 (guinea pig; [2]) of 0.063 to 0.125 mg/kg.
For `CC(C)(C)NCC(O)c1cc(Cl)c(N)c(Cl)c1` (stereo not drawn) [NAB 365, 1-(4-amino-3,5-dichlorophenyl)-2-tert-butylamino ethanol, reference compound], the “bronchodilator activity by oral administration” value ([1]; in words) is given as “strong bronchodilator activity”, the “bronchodilator activity, times stronger than Isoproterenol” value ([1]; oral administration, versus Isoproterenol) is given as “about 500 times” and the “bronchodilator activity, times stronger than Salbutamol” value ([1]; oral administration, versus Salbutamol) is given as “about 100 times”. The “broncho-selectivity (Ratio of β1 /β2)” value (β1 /β2) was 0.46, the ED50 (guinea pig) was 0.49 mg/kg and the “β1 action i.d. ED25 beats/min” value (β1; intraduodenal, anesthetized dogs, dose producing 25 beats/min. increase in heart rate) was 0.0057 mg/kg. The ED50 (β2) was 0.0123 mg/kg.
